{
  "source": "patent US20200000091A1",
  "about": "“Microbe Proliferation Inhibitor, Method for Inhibiting Proliferation of Microbes, UV Resistance-Improving Agent, Method for Improving UV Resistance, Artificial Protein Formation Body and method for Manufacturing Same, Artificial Protein Solution, and Coloring Agent” (Keio University, priority 2017, published 2020)",
  "system": "Escherichia coli wild strain (W3110)",
  "experiment": "Growth of Escherichia coli in M9 medium, absorbance (OD600) measured every hour",
  "format": "cell-based",
  "conditions": "1 mM xanthurenic acid in M9 medium (Tris-HCl buffer pH 8), compared with Comparative Example 1 (no xanthurenic acid), FIG. 1",
  "description": "An Escherichia coli wild strain (W3110) was cultured in M9 medium (7 mg/ml K2HPO4, 3 mg/ml KH2PO4, 0.5 mg/ml NaCl, 1 mg/ml NH4Cl, 1 mg/ml glucose, 1 mM MgSO4.7H2O, 14.7 μg/ml CaCl2)) containing 10 μg/ml thiamine. In preparing the medium, a Tris-HCl buffer solution (pH 8) was used instead of water in consideration of the solubility of xanthurenic acid. The obtained overnight cultures were diluted into 0.8% with 20 ml of a fresh medium containing 1 mM xanthurenic acid (Wako Pure Chemical Industries, Ltd.) to obtain a sample solution. Absorbance (OD600) was measured as to this sample solution every hour by using Nano Photometer (Implen GmbH).\nThe preparation and measurement of a sample solution were performed in the same way as in Example 1 except that the overnight cultures were diluted with a fresh medium containing no xanthurenic acid.",
  "data": [
    {"smiles": "O=C(O)c1cc(O)c2cccc(O)c2n1", "note": "[Example 1, xanthurenic acid]", "values": [
      {"measurement": "absorbance (OD600); proliferation of Escherichia coli", "result": "proliferation of Escherichia coli was inhibited"}
    ]}
  ]
}
